Measurements reported in US20110118127A1, “MARKER GENES FOR SCREENING OF DRUG-INDUCED TOXICITY IN HUMAN CELLS AND SCREENING METHOD USING THE SAME” (priority 2009, published 2011).
Values after ≈ are worked out from the molar mass of the structure shown. Read-outs that look alike come from different tables or passages of the source.

What was measured:
in vitro [1] = conditions: human
Method: (§1) Human cell lines, BEAS-2B (ATCC, USA), JEG-3 (Korean Cell Line Bank, Korea) and HK-2 (Korean Cell Line Bank, Korea) were cultured in T 75 flask containing DMEM (Gibco-BRL, USA) supplemented with 10% FBS at the concentration of 5×10^5 cells/ml. THLE-3 cells were cultured in BEGM (Gibco-BRL, USA) supplemented with 10% FBS. HUVEC cells (ATCC, USA) were cultured in T 75 flask containing EGM-2 (CAMBREX, USA) supplemented with 5% FBS at the concentration of 5×10^5 cells/ml. […] Those drugs were dissolved in DMSO and water. The concentration of vehicle was up to 0.1% in every experiment.
(§2) MTT assay was performed with BEAS-2B, JEG-3, HK-2, THLE-3 and HUVEC according to the method of Mossman et al (J. Immunol. Methods, 65, 55-63, 1983). The cells (Table 2) in a 24-well plate were treated with each drug dissolved in DMSO or water. […] Then, the medium was eliminated and the formed formazan crystal was dissolved in 500 μl of DMSO. The mixture was aliquoted in a 96-well plate and OD54o was measured.

[2] = Cytotoxicity test (MTT assay) in THLE-3; conditions: human
Method: as §1, §2

HepG2 = assay: Cytotoxicity test (MTT assay) in HepG2; format: cell-based, human; conditions: Table 11; HepG2 40 × 10^4 cells/well, 48 h; read-out: Cytotoxicity IC20 Conc.
Method: (§3) The cells (Table 2) in a 24-well plate were treated with each drug dissolved in DMSO or water. 24 and 48 hours later, 5 mg/μl of MTT (3-[4,5-dimethylthiazol-2-yl]-2,5-diphenyltetra zolium bromide) was added thereto, followed by culture at 37 for 3 hours. Then, the medium was eliminated and the formed formazan crystal was dissolved in 500 μl of DMSO. The mixture was aliquoted in a 96-well plate and OD540 was measured.

in vitro [3] = conditions: human; remark: listed apart in the source
[4] = Cytotoxicity test (MTT assay) in HepG2; format: cell-based, human; conditions: human
Method: as §3

[5] = Cytotoxicity test (MTT assay) in HUVEC; format: cell-based; conditions: human, HUVEC 10 × 10^4 cells/well, survival inhibited 20%, read-out: Cytotoxicity IC20 Conc.
Method: as §1, §2

THLE-3 = assay: Cytotoxicity test (MTT assay) in THLE-3; conditions: read-out: Cytotoxicity IC20 Conc.; THLE-3 3 × 10^4 cells/well, 3 h; survival inhibited 20%
Method: as §1, §2

HK-2 [6] = conditions: human, 24 h
Method: (§4) Human cell lines, BEAS-2B (ATCC, USA), JEG-3 (Korean Cell Line Bank, Korea) and HK-2 (Korean Cell Line Bank, Korea) were cultured in T 75 flask containing DMEM (Gibco-BRL, USA) supplemented with 10% FBS at the concentration of 5×10^5 cells/ml. […] Those drugs were dissolved in DMSO and water. The concentration of vehicle was up to 0.1% in every experiment.
(§5) MTT assay was performed with BEAS-2B, JEG-3, HK-2, THLE-3 and HUVEC according to the method of Mossman et al (J. Immunol. Methods, 65, 55-63, 1983). The cells (Table 2) in a 24-well plate were treated with each drug dissolved in DMSO or water. 48 hours later, 5 mg/ml of MTT (3-[4,5-dimethylthiazol-2-yl]-2,5-diphenyltetra zolium bromide) was added thereto, followed by culture at 37 for 3 hours. Then, the medium was eliminated and the formed formazan crystal was dissolved in 500 μl of DMSO. The mixture was aliquoted in a 96-well plate and OD54o was measured.
(§6) MTT assay was performed with BEAS-2B, JEG-3, HK-2 and HepG2 according to the method of Mossman et al (J. Immunol. Methods, 65, 55-63, 1983). The cells (Table 2) in a 24-well plate were treated with each drug dissolved in DMSO or water. 24 and 48 hours later, 5 mg/μl of MTT (3-[4,5-dimethylthiazol-2-yl]-2,5-diphenyltetra zolium bromide) was added thereto, followed by culture at 37 for 3 hours. […] The mixture was aliquoted in a 96-well plate and OD540 was measured.

JEG-3 [7] = conditions: human, 48 h
Method: as §4, §5
(§7) MTT assay was performed with BEAS-2B, JEG-3, HK-2 and HepG2 according to the method of Mossman et al (J. Immunol. Methods, 65, 55-63, 1983). The cells (Table 2) in a 24-well plate were treated with each drug dissolved in DMSO or water. 24 and 48 hours later, 5 mg/μl of MTT (3-[4,5-dimethylthiazol-2-yl]-2,5-diphenyltetra zolium bromide) was added thereto, followed by culture at 37 for 3 hours. Then, the medium was eliminated and the formed formazan crystal was dissolved in 500 μl of DMSO. The mixture was aliquoted in a 96-well plate and OD540 was measured.

JEG-3 [8] = assay: Cytotoxicity test (MTT assay) in JEG-3; conditions: Table 11; JEG-3 3 × 10^4 cells/well, 48 h
Method: as §4, §5, §7

HK-2 [9] = assay: Cytotoxicity test (MTT assay) in HK-2; conditions: HK-2 2.3 × 10^4 cells/well, 24 h; survival inhibited 30%
Method: as §4, §5, §6

Compound `O=[N+]([O-])c1ccc2c(c1)Cc1ccccc1-2` [2-nitrofluorene] has an IC20 at 3 h (in vitro [1]) of 80.8 µM.

`O=[N+]([O-])c1cc[n+]([O-])c2ccccc12` [4-nitroquinoline-N-oxide] showed an IC20 at 3 h [2] of 0.83 µM.

Work on `CC(=O)Nc1ccc(O)cc1` [Acetaminophene] yielded an IC20 (HepG2) of 11000 µM.

Compound `CCCCc1oc2ccccc2c1C(=O)c1cc(I)c(OCCN(CC)CC)c(I)c1` [Amiodarone] has an IC20 at 48 h (in vitro [3]) of 29.4 µM.

With `c1ccc2c(c1)cc1ccc3cccc4ccc2c1c34` [Benzo(a)pyrene] the IC20 at 48 h [4] was 8.35 µM.

Compound `NC(=O)N1c2ccccc2C=Cc2ccccc21` [Carbamazepine] has an IC20 at 48 h (in vitro [3]) of 324 µM.

For `COc1cccc2c1C(=O)c1c(O)c3c(c(O)c1C2=O)C[C@@](O)(C(C)=O)C[C@@H]3O[C@H]1C[C@H](N)[C@H](O)[C@H](C)O1` [Daunorubicin], the IC20 at 48 h [5] was 0.191 µg/mL (≈ 0.362 µM).

Work on `COc1cccc2c1C(=O)c1c(O)c3c(c(O)c1C2=O)C[C@@](O)(C(=O)CO)C[C@@H]3O[C@H]1C[C@H](N)[C@H](O)[C@H](C)O1` [Doxorubicin] yielded an IC20 at 48 h [5] of 0.083 µg/mL (≈ 0.153 µM).

With `NC(=O)/C(=C\c1ccc([N+](=O)[O-])o1)c1ccco1` [Furylfuramide] the IC20 (THLE-3) was 243 µM.

With `CC(C)Cc1ccc(C(C)C(=O)O)cc1` (stereo not shown) [Ibuprofen] the “Cytotoxicity IC30 Conc.” value (HK-2 [6]) was 1650 µg/mL.

For `CN(Cc1cnc2nc(N)nc(N)c2n1)c1ccc(C(=O)N[C@@H](CCC(=O)O)C(=O)O)cc1` [Methotrexate], the IC20 at 48 h (in vitro [3]) was 0.144 µM and the “Cytotoxicity IC30 Conc.” value (JEG-3 [7]) was 4750 µM.

With `COS(C)(=O)=O` [Methylmethanesulfonate, methylmethanesulfonate] the IC20 at 3 h (in vitro [1]) was 510 µM.

`CN(N=O)C(N)=O` [N-nitroso-N-methylurea] gave an IC20 at 3 h [2] of 2090 µM.

Compound `O=C1CN(/N=C/c2ccc([N+](=O)[O-])o2)C(=O)N1` [Nitrofurantoin] has an IC20 at 48 h (in vitro [3]) of 89.5 µM.

With `O=C1CCC(N2C(=O)c3ccccc3C2=O)C(=O)N1` (stereo not shown) [Thalidomide] the “Cytotoxicity IC30 Conc.” value (JEG-3 [7]) was 4283 µM.

In the case of `CCCC(CCC)C(=O)O` [Valproic acid], the “Cytotoxicity IC30 Conc.” value (JEG-3 [7]) is reported as 7380 µM.

In the case of `CC(=O)CC(c1ccccc1)c1c(O)c2ccccc2oc1=O` (stereo not shown) [Warfarin], the “Cytotoxicity IC30 Conc.” value (JEG-3 [8]) is reported as 8160 µM.

In the case of Gentamycin, the “Cytotoxicity IC30 Conc.” value (HK-2 [9]) is reported as 3440 µg/mL.
